Measured values from patent US20230391772A1, “METHODS AND COMPOSITIONS FOR TARGETED PROTEIN DEGRADATION” (Ranok Therapeutics (Hangzhou) Co. Ltd., priority 2020, published 2023).

Legend:
HSP90a protein = target: T1, HSP90a protein (Homo sapiens, UniProt P07900); assay: HSP90α-binding fluorescent polarization (FP) assay, BODIPY-labeled RNK04010 probe; conditions: FP competition with RNK04010 (BODIPY-labeled), 5 nM, 300 min at 25° C.
T1 construct: purchased BPS Bioscience 50298
In short: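 Displacement of a 5 nM fluorescent HSP90 ligand from the N-terminal HSP90a domain by FP. Incubation ran at 25° C: 120 min for the FITC-geldanamycin tracer, 300 min for the BODIPY-conjugated triazolone RNK04010.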

[1] = test system: NCI-H358 human non-small cell lung cancer; assay: NCI-H358 CCK-8 proliferation assay; type: cell-based; conditions: NCI-H358 cells, 72 hr
Description: The following cancer cell lines were employed: BT-474 human breast carcinoma (ATCC, #HTB-20); MIA PaCa-2 human pancreatic carcinoma [2 copies KRAS(G12C)](ATCC, #CRL-1420); NCI-H23 human non-small cell lung cancer [1 copy KRAS(G12C)](ATCC, #CRL-5800); NCI-H358 human non-small cell lung cancer [1 copy KRAS(G12C)](ATCC, #CRL-5807); LU65A human lung carcinoma (Pharmaron, Beijing, China). Cell lines were cultured essentially according to ATCC and Pharmaron recommendations.
Cancer Cell Line Proliferation (CCK-8) Assays
3-fold serial dilutions of each test compound were prepared ranging from 20 μM to 1.02 nM.
% Inhibition=100−(D−B)/(S−B)*100%. • S: Absorbance of cells treated with DMSO • D: Absorbance of compound-treated cells • B: Absorbance of medium with DMSO without cells

SMILES | IC50 (HSP90a protein) [µM] | EC50 [1] [µM]
C=CC(=O)N1CCN(c2nc(NCCC(=O)NCc3ccc(-n4c(O)nnc4-c4cc(CC)c(O)cc4O)cc3F)nc3c2CCN(c2cc(O)cc4ccccc24)C3)CC1 [Compound 41, 3-((4-(4-acryloylpiperazin-1-yl)-7-(3-hydroxynaphthalen-1-yl)-5,6,7,8-tetrahydropyrido[3,4-d]pyrimidin-2-yl)amino)-N-(4-(3-(5-ethyl-2,4-dihydroxyphenyl)-5-hydroxy-4H-1,2,4-triazol-4-yl)-2-fluorobenzyl)propanamide, trifluoroacetic acid] | 0.1 to 1 | > 1
C=CC(=O)N1CCN(c2nc(NCCC(=O)NCCOCCOCCN[C@@H](C)C(=O)N[C@H](C(=O)N3CCC[C@H]3C(=O)Nc3snnc3-c3ccccc3)C3CCCCC3)nc3c2CCN(c2cc(O)cc4ccccc24)C3)CC1 [Compound 20, (S)-1-((2S,5S)-18-((4-(4-acryloylpiperazin-1-yl)-7-(3-hydroxynaphthalen-1-yl)-5,6,7,8-tetrahydropyrido[3,4-d]pyrimidin-2-yl)amino)-2-cyclohexyl-5-methyl-4,16-dioxo-9,12-dioxa-3,6,15-triazaoctadecanoyl)-N-(4-phenyl-1,2,3-thiadiazol-5-yl)pyrrolidine-2-carboxamide, trifluoroacetic acid] | > 1 | > 1
C=CC(=O)N1CCN(c2nc(NCCC(=O)NCc3ccc(-n4c(O)nnc4-c4cc(C(C)C)c(O)cc4O)cc3C(F)(F)F)nc3c2CCN(c2cccc4ccccc24)C3)C[C@H]1CC#N [Compound 82, (R)-3-((4-(4-acryloyl-3-(cyanomethyl)piperazin-1-yl)-7-(naphthalen-1-yl)-5,6,7,8-tetrahydropyrido[3,4-d]pyrimidin-2-yl)amino)-N-(4-(3-(2,4-dihydroxy-5-isopropylphenyl)-5-hydroxy-4H-1,2,4-triazol-4-yl)-2-(trifluoromethyl)benzyl)propanamide, trifluoroacetic acid] | 0.1 to 1 | > 1
CCc1cc(-c2nnc(O)n2-c2ccc(CNC(=O)CCNc3nc4c(c(N5CCN(C(C)=O)CC5)n3)CCN(c3cc(O)cc5ccccc35)C4)cc2)c(O)cc1O [Compound 48, 3-((4-(4-acetylpiperazin-1-yl)-7-(3-hydroxynaphthalen-1-yl)-5,6,7,8-tetrahydropyrido[3,4-d]pyrimidin-2-yl)amino)-N-(4-(3-(5-ethyl-2,4-dihydroxyphenyl)-5-hydroxy-4H-1,2,4-triazol-4-yl)benzyl)propanamide, trifluoroacetic acid] | 0.1 to 1 | > 1
C=CC(=O)N1CCN(c2nc(NCCC(=O)NCc3ccc(CN4CCC(Cc5ccc(-n6c(C(=O)NCC(F)(F)F)nnc6-c6cc(CC)c(O)cc6O)cc5)CC4)cc3)nc3c2CCN(c2cc(O)cc4ccccc24)C3)CC1 [Compound 125, 4-(4-((1-(4-((3-((4-(4-acryloylpiperazin-1-yl)-7-(3-hydroxynaphthalen-1-yl)-5,6,7,8-tetrahydropyrido[3,4-d]pyrimidin-2-yl)amino)propanamido)methyl)benzyl)piperidin-4-yl)methyl)phenyl)-5-(5-ethyl-2,4-dihydroxyphenyl)-N-(2,2,2-trifluoroethyl)-4H-1,2,4-triazole-3-carboxamide, trifluoroacetic acid] | 0.1 to 1 | 0.1 to 1
CC(=O)N1CCN(c2nc(NCCC(=O)N3CCC(Cc4ccc(CN(C)Cc5ccc(-n6c(C(=O)NCC(F)(F)F)nnc6-c6cc(C)c(O)cc6O)cc5)cc4)CC3)nc3c2CCN(c2cc(O)cc4ccccc24)C3)CC1 [Compound 114, 4-(4-(((4-((1-(3-((4-(4-acetylpiperazin-1-yl)-7-(3-hydroxynaphthalen-1-yl)-5,6,7,8-tetrahydropyrido[3,4-d]pyrimidin-2-yl)amino)propanoyl)piperidin-4-yl)methyl)benzyl)(methyl)amino)methyl)phenyl)-5-(2,4-dihydroxy-5-methylphenyl)-N-(2,2,2-trifluoroethyl)-4H-1,2,4-triazole-3-carboxamide, trifluoroacetic acid] | > 1 | > 1
C=CC(=O)N1CCN(c2nc(NCCC(=O)NCc3ccc(-n4c(O)nnc4-c4cc(C(C)C)c(O)cc4O)cc3F)nc3c2CCN(c2cccc4ccccc24)C3)C[C@H]1CC#N [Compound 96, (R)-3-((4-(4-acryloyl-3-(cyanomethyl)piperazin-1-yl)-7-(naphthalen-1-yl)-5,6,7,8-tetrahydropyrido[3,4-d]pyrimidin-2-yl)amino)-N-(4-(3-(2,4-dihydroxy-5-isopropylphenyl)-5-hydroxy-4H-1,2,4-triazol-4-yl)-2-fluorobenzyl)propanamide, trifluoroacetic acid] | 0.1 to 1 | > 1
C=C(F)C(=O)N1CCN(c2nc(N3CCC(CN4CCN(Cc5ccc(-n6c(O)nnc6-c6cc(C(C)C)c(O)cc6O)cc5)CC4)CC3)nc3c2CCN(c2cccc4cccc(Cl)c24)C3)C[C@@H]1CC#N [Compound 129, (S)-2-(4-(7-(8-chloronaphthalen-1-yl)-2-(4-((4-(4-(3-(2,4-dihydroxy-5-isopropylphenyl)-5-hydroxy-4H-1,2,4-triazol-4-yl)benzyl)piperazin-1-yl)methyl)piperidin-1-yl)-5,6,7,8-tetrahydropyrido[3,4-d]pyrimidin-4-yl)-1-(2-fluoroacryloyl)piperazin-2-yl)acetonitrile] | < 0.1 | 0.1 to 1
C=CC(=O)N1CCN(c2nc(NCCC(=O)N3CCN(Cc4ccc5c(c4)CN(C(=O)c4cc(CC)c(O)cc4O)C5)CC3)nc3c2CCN(c2cc(O)cc4ccccc24)C3)CC1 [Compound 68, 1-(4-(2-((3-(4-((2-(5-ethyl-2,4-dihydroxybenzoyl)isoindolin-5-yl)methyl)piperazin-1-yl)-3-oxopropyl)amino)-7-(3-hydroxynaphthalen-1-yl)-5,6,7,8-tetrahydropyrido[3,4-d]pyrimidin-4-yl)piperazin-1-yl)prop-2-en-1-one, trifluoroacetic acid] | > 1 | > 1
C=CC(=O)N1CCN(c2nc(NCCC(=O)NCc3ccc(-n4c(O)nnc4-c4ccc(O)cc4O)cc3)nc3c2CCN(c2cccc4cccc(Cl)c24)C3)C[C@@H]1CC#N [Compound 111, (S)-3-((4-(4-acryloyl-3-(cyanomethyl)piperazin-1-yl)-7-(8-chloronaphthalen-1-yl)-5,6,7,8-tetrahydropyrido[3,4-d]pyrimidin-2-yl)amino)-N-(4-(3-(2,4-dihydroxyphenyl)-5-hydroxy-4H-1,2,4-triazol-4-yl)benzyl)propanamide, trifluoroacetic acid] | > 1 | > 1
C=CC(=O)N1CCN(c2nc(NCCC(=O)N3CCN(c4ccc(-n5c(O)nnc5-c5cc(C(C)C)c(O)cc5O)cc4)CC3)nc3c2CCN(c2cccc4cccc(Cl)c24)C3)C[C@H]1CC#N [Compound 88, (R)-2-(1-acryloyl-4-(7-(8-chloronaphthalen-1-yl)-2-((3-(4-(4-(3-(2,4-dihydroxy-5-isopropylphenyl)-5-hydroxy-4H-1,2,4-triazol-4-yl)phenyl)piperazin-1-yl)-3-oxopropyl)amino)-5,6,7,8-tetrahydropyrido[3,4-d]pyrimidin-4-yl)piperazin-2-yl)acetonitrile, trifluoroacetic acid] | 0.1 to 1 | > 1
